Laboratory results taken from ChEMBL document CHEMBL5365469, “Design, synthesis and antitumor effects of novel benzimidazole derivatives as PI3K inhibitors” (Bioorg Med Chem Lett, 2023).

Assays:
[1] = test system: A549; assay: Antiproliferative activity against human A549 cells assessed as inhibition of cell growth by MTT assay; assay type: functional, cell-based
[2] = test system: HepG2; assay: Antiproliferative activity against human HepG2 cells assessed as inhibition of cell growth by MTT assay; assay type: functional, cell-based
[3] = test system: SiHa; assay: Antiproliferative activity against human SiHa cells assessed as inhibition of cell growth by MTT assay; assay type: functional, cell-based
[4] = test system: HCT-116; assay: Antiproliferative activity against human HCT-116 cells assessed as inhibition of cell growth by MTT assay; assay type: functional, cell-based
[5] = test system: PC-3; assay: Antiproliferative activity against human PC-3 cells assessed as inhibition of cell growth by MTT assay; assay type: functional, cell-based
[6] = test system: MCF7; assay: Antiproliferative activity against human MCF7 cells assessed as inhibition of cell growth by MTT assay; assay type: functional, cell-based
[7] = test system: A549; assay: Induction of cell cycle arrest in human A549 cells assessed as accumulation of cells at G0/G1 phase at 3 uM by FACS analysis ( Rvb = 49.93%); assay type: functional
[8] = test system: A549; assay: Induction of cell cycle arrest in human A549 cells assessed as accumulation of cells at S phase at 3 uM by FACS analysis ( Rvb = 40.71%); assay type: functional
[9] = test system: A549; assay: Induction of cell cycle arrest in human A549 cells assessed as accumulation of cells at G2/M phase at 3 uM by FACS analysis ( Rvb = 9.35%); assay type: functional
[10] = Cytotoxicity against human L02 cells assessed as inhibition of cell growth by MTT assay; assay type: toxicity, cell-based
[11] = test system: A549; assay: Induction of apoptosis in human A549 cells assessed as increase in apoptotic cells at 1.5 uM incubated for 48 hrs by Annexin V-FITC/PI staining analysis relative to control; assay type: functional
[12] = test system: A549; assay: Induction of apoptosis in human A549 cells assessed as increase in apoptotic cells at 3 uM incubated for 48 hrs by Annexin V-FITC/PI staining analysis relative to control; assay type: functional
[13] = test system: A549; assay: Induction of apoptosis in human A549 cells assessed as increase in apoptotic cells at 6 uM incubated for 48 hrs by Annexin V-FITC/PI staining analysis relative to control; assay type: functional
[14] = test system: A549; assay: Induction of cell cycle arrest in human A549 cells assessed as accumulation of cells at G0/G1 phase at 1.5 uM by FACS analysis ( Rvb = 49.93%); assay type: functional
[15] = test system: A549; assay: Induction of cell cycle arrest in human A549 cells assessed as accumulation of cells at S phase at 1.5 uM by FACS analysis ( Rvb = 40.71%); assay type: functional
[16] = test system: A549; assay: Induction of cell cycle arrest in human A549 cells assessed as accumulation of cells at G2/M phase at 1.5 uM by FACS analysis ( Rvb = 9.35%); assay type: functional
[17] = test system: A549; assay: Induction of cell cycle arrest in human A549 cells assessed as accumulation of cells at G0/G1 phase at 6 uM by FACS analysis ( Rvb = 49.93%); assay type: functional
[18] = test system: A549; assay: Induction of cell cycle arrest in human A549 cells assessed as accumulation of cells at S phase at 6 uM by FACS analysis ( Rvb = 40.71%); assay type: functional
[19] = test system: A549; assay: Induction of cell cycle arrest in human A549 cells assessed as accumulation of cells at G2/M phase at 6 uM by FACS analysis ( Rvb = 9.35%); assay type: functional
[20] = test system: A549; assay: Inhibition of PI3K signalling pathway in human […] cells assessed as decrease in phosphorylated PI3K level by Western blot assay; assay type: cell-based; conditions: dose 1.5-6 µM
[21] = test system: A549; assay: Inhibition of PI3K signalling pathway in human […] cells assessed as decrease in phosphorylated AKT level by Western blot assay; assay type: cell-based; conditions: dose 1.5-6 µM

IC50 [1]	IC50 [2]	IC50 [4]	IC50 [5]	IC50 [6]	SMILES	IC50 [3]	other results
73.4 µM	61 µM	32.9 µM	22.1 µM	57.3 µM	COc1cc2nc(-c3cc(OC)c(OC)cc3OC)[nH]c2cc1/C=C(\C)C(N)=O	33.5 µM	
> 100 µM	66.2 µM	10.4 µM	20.4 µM	> 100 µM	COc1cc2nc(-c3ccc(OC)c(OC)c3OC)[nH]c2cc1C#Cc1ccc(Cl)cc1	> 100 µM	
> 100 µM	19.4 µM	3.05 µM	10.5 µM	6.65 µM	COc1cc2nc(-c3cc(OC)c(OC)cc3OC)[nH]c2cc1C#Cc1ccc(Cl)cc1	> 100 µM	
> 100 µM	35.6 µM	39.3 µM	26.9 µM	> 100 µM	COc1cc2nc(-c3ccc(OC)c(OC)c3OC)[nH]c2cc1C#Cc1ccccc1F	> 100 µM	
> 100 µM	94.8 µM	> 100 µM	> 100 µM	> 100 µM	COc1ccc(C#Cc2cc3[nH]c(-c4ccc(OC)c(OC)c4OC)nc3cc2OC)cc1	> 100 µM	
33.1 µM	44.6 µM	4.47 µM	19.5 µM	66.7 µM	COc1cc2nc(-c3cc(OC)c(OC)cc3OC)[nH]c2cc1C#Cc1ccc(C(F)(F)F)cc1	24.4 µM	
9.7 µM	88.7 µM	3.02 µM	20.2 µM	7.14 µM	COc1ccc(C#Cc2cc3[nH]c(-c4cc(OC)c(OC)cc4OC)nc3cc2OC)cc1	33.4 µM	
> 100 µM	96.8 µM	81.4 µM	22.7 µM	> 100 µM	COc1cc2nc(-c3ccc(OC)c(OC)c3OC)[nH]c2cc1C#Cc1ccccc1Cl	> 100 µM	
1.55 µM	88.7 µM	1.68 µM	25.5 µM	2.01 µM	COc1cc2nc(-c3cc(OC)c(OC)cc3OC)[nH]c2cc1C#Cc1ccccc1F	9.36 µM	IC50 [10]: 41.5 µM; Activity [11]: 28.97%; Activity [12]: 61.73%; Activity [13]: 63.1%; Activity [14]: 54.14%; Activity [15]: 37.71%; Activity [16]: 8.15%; Activity [7]: 54.95%; Activity [8]: 37.22%; Activity [9]: 7.83%; Activity [17]: 60.61%; Activity [18]: 32.41%; Activity [19]: 6.64%; inhibition [20]: Dose-Dependent Effect; inhibition [21]: Dose-Dependent Effect
93.3 µM	> 100 µM	29 µM	22.6 µM	77.8 µM	COc1cc2nc(-c3cc(OC)c(OC)cc3OC)[nH]c2cc1/C=C/C(N)=O	5.27 µM	
> 100 µM	23.3 µM	> 100 µM	57.3 µM	27 µM	COc1cc2nc(-c3cc(OC)c(OC)cc3OC)[nH]c2cc1C#Cc1ccccc1Cl	90.8 µM	

The next lines start with the molecule.

SMILES	IC50 [1]	IC50 [2]	IC50 [4]	IC50 [5]	IC50 [6]	IC50 [3]	other results
COc1cc2nc(-c3ccc(OC)c(OC)c3OC)[nH]c2cc1/C=C/C(=O)NC(C)(C)C	> 100 µM	> 100 µM	15.3 µM	19.6 µM	> 100 µM	38 µM	
CCOC(=O)/C=C/c1cc2[nH]c(-c3cc(OC)c(OC)cc3OC)nc2cc1OC	14.8 µM	13.7 µM	6.94 µM	4.01 µM	22 µM	9.8 µM	
CCOC(=O)/C=C/c1cc2[nH]c(-c3ccc(OC)c(OC)c3OC)nc2cc1OC	> 100 µM	> 100 µM	75.1 µM	84.9 µM	> 100 µM	80.6 µM	
Nc1cc(C(F)(F)F)c(-c2cc(N3CCOCC3)nc(N3CCOCC3)n2)cn1 [BUPARLISIB]	9.75 µM	23.6 µM	3.73 µM	12.1 µM	16.4 µM	7.18 µM	Activity [7]: 35.32%; Activity [8]: 27.99%; Activity [9]: 36.68%
COc1cc2nc(-c3ccc(OC)c(OC)c3OC)[nH]c2cc1C#Cc1ccc(C(F)(F)F)cc1	46.1 µM	56.8 µM	15 µM	41.1 µM	> 100 µM	86.6 µM	
COc1cc2nc(-c3ccc(OC)c(OC)c3OC)[nH]c2cc1/C=C/C(=O)N1CCOCC1	> 100 µM	> 100 µM	67.8 µM	37.6 µM	> 100 µM	76 µM	
COc1cc2nc(-c3cc(OC)c(OC)cc3OC)[nH]c2cc1/C=C/C(=O)N1CCOCC1	> 100 µM	87.4 µM	12 µM	8.45 µM	15.5 µM	6.57 µM	
COc1cc2nc(-c3ccc(OC)c(OC)c3OC)[nH]c2cc1/C=C/C(N)=O	> 100 µM	> 100 µM	> 100 µM	> 100 µM	> 100 µM	> 100 µM	
COc1cc2nc(-c3ccc(OC)c(OC)c3OC)[nH]c2cc1/C=C/C(=O)NCCO	> 100 µM	> 100 µM	53.9 µM	65.4 µM	> 100 µM	22.6 µM	
COc1cc2nc(-c3cc(OC)c(OC)cc3OC)[nH]c2cc1/C=C/C(=O)NC(C)(C)C	8.36 µM	13 µM	3.11 µM	3.74 µM	21.7 µM	3.48 µM	
COc1cc2nc(-c3cc(OC)c(OC)cc3OC)[nH]c2cc1/C=C/C(=O)NCCO	> 100 µM	> 100 µM	> 100 µM	> 100 µM	> 100 µM	> 100 µM	
COc1cc2nc(-c3cc(OC)c(OC)cc3OC)[nH]c2cc1/C=C/C(=O)NC(C)C	> 100 µM	55.6 µM	37.4 µM	92.6 µM	> 100 µM	> 100 µM	
COc1cc2nc(-c3ccc(OC)c(OC)c3OC)[nH]c2cc1/C=C(\C)C(N)=O	> 100 µM	> 100 µM	> 100 µM	90.8 µM	> 100 µM	> 100 µM	
COc1cc2nc(-c3ccc(OC)c(OC)c3OC)[nH]c2cc1/C=C/C(=O)NC(C)C	85.4 µM	36.8 µM	38.4 µM	46 µM	> 100 µM	72.3 µM	
